≈ marks a conversion by molar mass, not a printed value. Like-named read-outs stand apart in the source and are kept apart here.
Tests used:
S. aureus 209-P JC = test: MIC by agar plate dilution method, S. aureus 209-P JC; assay type: cell-based; details: Staphylococcus aureus; Test 2; S. aureus 209-P JC; inoculum 10^6; 37° C., 18 hours; read-out: minimum inhibitory concentration (MIC)
Experimental: (§1) Test method: The MIC was measured by an agar plate dilution method in accordance with a standard method of Japan Chemotherapeutic Society (cf. Nippon Kagaku Ryoho Gakkaishi, 29(1), 76-79, 1981). Thus, the organisms incubated at 37° C. for 18 hours using sensitivity test broth (Nissei) was diluted to 10^6 CFU/ml using the same broth. […] As a control, enoxacin and ofloxacin were used in Tests 1 and 2, respectively.
(§2) The numbers of the inoculated bacteria were 10^6 in all cases and the unit of the MIC was micrograms/ml.

M. luteus ATCC 9341 = test: MIC by agar plate dilution method, M. luteus ATCC 9341; assay type: cell-based; details: Micrococcus luteus, ATCC9341; Test 2; M. luteus ATTC 9341; inoculum 10^6; 37° C., 18 hours; read-out: minimum inhibitory concentration (MIC)
Experimental: as §1, §2

B. subtilis ATCC 6633 = test: MIC by agar plate dilution method, B. subtilis ATCC 6633; assay type: cell-based; details: Bacillus subtilis, ATCC6633; Test 2; B. subtilis ATCC 6633; inoculum 10^6; 37° C., 18 hours; read-out: minimum inhibitory concentration (MIC)
Experimental: as §1, §2

E. coli NIHJ JC-2 = test: MIC by agar plate dilution method, E. coli NIHJ JC-2; assay type: cell-based; details: Escherichia coli, read-out: minimum inhibitory concentration (MIC)
Experimental: as §1, §2

K. pneumoniae K-1966 = test: MIC by agar plate dilution method, K. pneumoniae K-1966; assay type: cell-based; details: Klebsiella pneumoniae, read-out: minimum inhibitory concentration (MIC)
Experimental: as §1, §2

S. marcescens IFO 3736 = test: MIC by agar plate dilution method, S. marcescens IFO 3736; assay type: cell-based; details: Serratia marcescens, IFO3736; Test 2; S. Marcescens IFO 3736; inoculum 10^6; 37° C., 18 hours; read-out: minimum inhibitory concentration (MIC)
Experimental: as §1, §2

S. flexneri = test: MIC by agar plate dilution method, S. flexneri; assay type: cell-based; details: Shigella flexneri, Test 2, inoculum 10^6, 37° C., 18 hours, read-out: minimum inhibitory concentration (MIC)
Experimental: as §1, §2

P. aeruginosa E-2 = test: MIC by agar plate dilution method, P. aeruginosa E-2; assay type: cell-based; details: Pseudomonas aeruginosa, E2; Test 2; P. aeruginosa E-2; inoculum 10^6; 37° C., 18 hours; read-out: minimum inhibitory concentration (MIC)
Experimental: as §1, §2

S. epidermidis = test: MIC by agar plate dilution method, S. epidermidis; assay type: cell-based; details: Staphylococcus epidermidis, Test 2, inoculum 10^6, 37° C., 18 hours, read-out: minimum inhibitory concentration (MIC)
Experimental: as §1, §2

Proteus mirabilis 181 = test: MIC by agar plate dilution method, Proteus mirabilis 181; assay type: cell-based; details: read-out: minimum inhibitory concentration (MIC)
Experimental: as §1, §2

[1] = tested on: infections caused by Gram positive bacteria and Pseudomonas aeruginosa (chronic); details: background statement; cited from earlier work
[2] = NIHJJC2, Test 2, E. coli NIHJ JC-2, inoculum 10^6, 37° C., 18 hours
[3] = K1966, Test 2, K. pneumoniae K-1966, inoculum 10^6, 37° C., 18 hours
[4] = Test 2, Proteus mirabilis 181, inoculum 10^6, 37° C., 18 hours

Row | SMILES | MIC (S. aureus 209-P JC) [µg/mL] | MIC (M. luteus ATCC 9341) [µg/mL] | MIC (B. subtilis ATCC 6633) [µg/mL] | MIC (E. coli NIHJ JC-2; [2]) [µg/mL] | MIC (K. pneumoniae K-1966; [3]) [µg/mL] | MIC (S. marcescens IFO 3736) [µg/mL] | MIC (S. flexneri) [µg/mL] | MIC (P. aeruginosa E-2) [µg/mL] | MIC (S. epidermidis) [µg/mL] | MIC (Proteus mirabilis 181; [4]) [µg/mL] | MIC (E. coli NIHJ JC-2; NIHJJC2, 18 h) [µg/mL] | MIC (K. pneumoniae K-1966; K1966, 18 h) [µg/mL] | MIC (Proteus mirabilis 181; Proteus mirabilis, 181, 18 h) [µg/mL] | activity against infections caused by Gram positive bacteria and Pseudomonas aeruginosa (chronic) [1]
1 | O=C(O)c1c2n(c3cc(N4CCNCC4)c(F)cc3c1=O)C(c1ccc(F)cc1)S2 (stereo not drawn) [Table 1 (12), 6-Fluoro-1-(4-fluorophenyl)-4-oxo-7-(1-piperazinyl)-4H-(1,3)thiazeto(3,2-a)quinoline-3-carboxylic acid] | 0.2 (≈ 0.466 µM) | 1.56 (≈ 3.63 µM) | 0.05 (≈ 0.116 µM) | 0.025 (≈ 0.0582 µM) | 0.0125 (≈ 0.0291 µM) | 0.39 (≈ 0.908 µM) | 0.025 (≈ 0.0582 µM) | 0.39 (≈ 0.908 µM) | 0.39 (≈ 0.908 µM) | 0.2 (≈ 0.466 µM) | – | – | – | –
2 | CC1Sc2c(C(=O)O)c(=O)c3cc(F)c(N4CCNCC4)cc3n21 (stereo not drawn) [Table 1 (13), 6-Fluoro-1-methyl-4-oxo-7-(1-piperazinyl)-4H-(1,3)thiazeto(3,2-a)quinoline-3-carboxylic acid] | 0.1 (≈ 0.286 µM) | 1.56 (≈ 4.46 µM) | 0.1 (≈ 0.286 µM) | – | – | 0.05 (≈ 0.143 µM) | 0.0125 (≈ 0.0358 µM) | 0.2 (≈ 0.572 µM) | 3.13 (≈ 8.96 µM) | 0.025 (≈ 0.0716 µM) | 0.0125 (≈ 0.0358 µM) | 0.0125 (≈ 0.0358 µM) | – | –
3 | COc1c(N2CCN(C)CC2)c(F)cc2c(=O)c(C(=O)O)c3n(c12)C(C)S3 (stereo not drawn) [Table 1 (14), 6-Fluoro-8-methoxy-1-methyl-7-(4-methyl-1-piperazinyl)-4-oxo-4H-(1,3)thiazeto(3,2-a)quinoline-3-carboxylic acid] | 0.1 (≈ 0.254 µM) | 0.2 (≈ 0.508 µM) | 0.025 (≈ 0.0635 µM) | 0.05 (≈ 0.127 µM) | 0.025 (≈ 0.0635 µM) | 0.2 (≈ 0.508 µM) | 0.0125 (≈ 0.0318 µM) | 0.39 (≈ 0.991 µM) | 0.39 (≈ 0.991 µM) | – | – | – | 0.0125 (≈ 0.0318 µM) | –
4 | CCn1cc(C(=O)O)c(=O)c2ccc(C)nc21 [nalidixic acid] | – | – | – | – | – | – | – | – | – | – | – | – | – | not active
5 | CCn1cc(C(=O)O)c(=O)c2cnc(N3CCNCC3)nc21 [pipemidic acid] | – | – | – | – | – | – | – | – | – | – | – | – | – | not active
6 | CCn1cc(C(=O)O)c(=O)c2cnc(N3CCCC3)nc21 [piromidic acid] | – | – | – | – | – | – | – | – | – | – | – | – | – | not active

Source: US4843070A, “Substituted thiazetoquinoline-3-carboxylic acids and pharmaceutically acceptable salts thereof” (priority 1986, dated 1989)
